Assay results reported in patent US12365655B2, “Compounds” (CTXT PTY LTD, priority 2018, dated 2025).

Assays:
MOF-KAT8 = target: T1, MOF-KAT8 (Homo sapiens, UniProt Q9H7Z6); test: biochemical
T1 sequence (Q9H7Z6 with tags, fused parts or gaps): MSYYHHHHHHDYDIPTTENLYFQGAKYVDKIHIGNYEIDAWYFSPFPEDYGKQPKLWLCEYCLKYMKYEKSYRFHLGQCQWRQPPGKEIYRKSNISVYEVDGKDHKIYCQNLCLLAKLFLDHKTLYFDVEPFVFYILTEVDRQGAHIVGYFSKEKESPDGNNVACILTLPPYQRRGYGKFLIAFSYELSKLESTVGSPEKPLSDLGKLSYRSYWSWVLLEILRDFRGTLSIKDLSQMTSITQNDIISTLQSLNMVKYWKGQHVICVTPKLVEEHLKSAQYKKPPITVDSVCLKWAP

MOZ-KAT6A = MOZ-KAT6A (Homo sapiens, UniProt Q92794, A567V); test: Acetyltransferase biochemical assay (AlphaScreen), KAT6A
MOZ-KAT6A, sequence (Q92794 with tags, fused parts or gaps A567V): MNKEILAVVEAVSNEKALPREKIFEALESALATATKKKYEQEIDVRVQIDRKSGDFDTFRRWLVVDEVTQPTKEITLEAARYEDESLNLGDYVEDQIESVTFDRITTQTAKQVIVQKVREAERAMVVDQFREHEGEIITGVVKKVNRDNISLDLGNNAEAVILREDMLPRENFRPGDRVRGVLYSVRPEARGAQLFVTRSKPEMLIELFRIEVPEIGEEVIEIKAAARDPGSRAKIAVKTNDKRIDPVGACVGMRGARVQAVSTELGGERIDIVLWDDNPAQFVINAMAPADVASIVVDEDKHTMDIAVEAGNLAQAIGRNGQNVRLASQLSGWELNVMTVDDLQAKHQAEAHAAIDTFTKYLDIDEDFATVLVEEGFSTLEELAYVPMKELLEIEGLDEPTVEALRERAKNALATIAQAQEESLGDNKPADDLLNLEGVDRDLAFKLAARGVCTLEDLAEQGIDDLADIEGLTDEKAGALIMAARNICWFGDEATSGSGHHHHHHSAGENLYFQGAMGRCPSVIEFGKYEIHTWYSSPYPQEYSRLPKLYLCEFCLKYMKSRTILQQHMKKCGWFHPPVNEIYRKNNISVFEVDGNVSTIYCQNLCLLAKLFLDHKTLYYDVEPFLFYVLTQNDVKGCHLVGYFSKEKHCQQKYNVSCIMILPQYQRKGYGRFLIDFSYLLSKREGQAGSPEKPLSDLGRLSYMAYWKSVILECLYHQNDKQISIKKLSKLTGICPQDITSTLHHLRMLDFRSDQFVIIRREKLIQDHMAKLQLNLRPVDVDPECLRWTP

TIP60-KAT5 = TIP60-KAT5 (Homo sapiens, UniProt Q92993); test: Acetyltransferase biochemical assay (AlphaScreen), KAT5
TIP60-KAT5, sequence (Q92993 with tags, fused parts or gaps isoform Q92993-2): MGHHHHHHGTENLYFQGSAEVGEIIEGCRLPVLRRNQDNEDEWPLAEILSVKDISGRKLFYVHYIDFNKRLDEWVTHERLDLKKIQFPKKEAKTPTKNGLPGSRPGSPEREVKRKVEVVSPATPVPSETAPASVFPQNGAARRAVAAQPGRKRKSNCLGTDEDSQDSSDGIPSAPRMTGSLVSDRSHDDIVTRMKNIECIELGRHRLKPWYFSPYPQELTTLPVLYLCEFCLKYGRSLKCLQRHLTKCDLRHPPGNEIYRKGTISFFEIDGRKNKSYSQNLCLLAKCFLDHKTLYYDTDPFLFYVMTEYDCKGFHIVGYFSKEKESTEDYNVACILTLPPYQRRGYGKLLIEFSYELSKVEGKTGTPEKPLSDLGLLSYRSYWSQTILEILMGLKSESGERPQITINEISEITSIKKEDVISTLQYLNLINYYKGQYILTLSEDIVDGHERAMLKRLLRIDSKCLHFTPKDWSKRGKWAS

HBO-KAT7 = HBO-KAT7 (Homo sapiens, UniProt O95251); test: Acetyltransferase biochemical assay (AlphaScreen), KAT7
HBO-KAT7, sequence (O95251 with tags, fused parts or gaps): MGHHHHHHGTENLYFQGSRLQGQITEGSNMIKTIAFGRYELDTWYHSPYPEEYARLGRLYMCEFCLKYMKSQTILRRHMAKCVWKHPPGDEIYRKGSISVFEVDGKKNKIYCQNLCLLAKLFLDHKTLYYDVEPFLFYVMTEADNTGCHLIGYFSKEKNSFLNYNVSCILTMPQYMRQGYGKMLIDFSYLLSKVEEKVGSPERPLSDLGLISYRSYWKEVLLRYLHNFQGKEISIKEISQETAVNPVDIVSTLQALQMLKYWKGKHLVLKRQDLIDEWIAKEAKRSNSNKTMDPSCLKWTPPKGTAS

SMILES | IC50 (MOF-KAT8) | IC50 (MOZ-KAT6A) | IC50 (TIP60-KAT5) | IC50 (HBO-KAT7)
O=S(=O)(Nc1noc2cccc(Cl)c12)c1ccccc1-c1cnco1 [Example 11, N-(4-chlorobenzo [d]isoxazol-3-yl)-2-(oxazol-5-yl)benzenesulfonamide] | 35.6 µM | > 125 µM | > 125 µM | 60.5 µM
Cc1ncc(-c2ccc(C)c(S(=O)(=O)Nc3noc4cccc(Cl)c34)c2)o1 [Example 18, N-(4-chlorobenzo [d]isoxazol-3-yl)-2-methyl-5-(2-methyloxazol-5-yl)benzenesulfonamide] | 63.5 µM | 74.9 µM | 118 µM | 34.1 µM
Cc1ccc(-c2ccno2)cc1S(=O)(=O)Nc1noc2cccc(Cl)c12 [Example 19, N-(4-chlorobenzo [d]isoxazol-3-yl)-5-(isoxazol-5-yl)-2-methylbenzenesulfonamide] | 41 µM | 32.2 µM | 65 µM | 36.1 µM
Cc1ccc(-n2cccn2)cc1S(=O)(=O)Nc1noc2cccc(Cl)c12 [Example 20, N-(4-chlorobenzo [d]isoxazol-3-yl)-2-methyl-5-(1H-pyrazol-1-yl)benzenesulfonamide] | 61.4 µM | 29.4 µM | 81.5 µM | 41.3 µM
CS(=O)(=O)c1ccc(S(=O)(=O)Nc2noc3cccc(Cl)c23)cc1 [Example 21, N-(4-chlorobenzo [d]isoxazol-3-yl)-4-(methylsulfonyl) benzenesulfonamide] | 39.7 µM | 24.8 µM | > 125 µM | 25.5 µM
O=S(=O)(Nc1noc2cccc(Cl)c12)c1ccc(Cl)cc1 [Example 26, 4-chloro-N-(4-chlorobenzo[d]isoxazol-3-yl)benzenesulfonamide] | 29.5 µM | 60.1 µM | > 125 µM | 34.5 µM
COc1cccc2onc(NS(=O)(=O)c3cccc4ccoc34)c12 [Example 81, N-(4-methoxybenzo[d]isoxazol-3-yl)benzofuran-7-sulfonamide] | 9.43 µM | 43.6 µM | 31.5 µM | 6.73 µM
COc1cccc(O)c1S(=O)(=O)Nc1noc2cccc(OC)c12 [Example 213, 2-Hydroxy-6-methoxy-N-(4-methoxybenzo[d]isoxazol-3-yl)benzenesulfonamide] |  | 8.28 µM | > 125 µM | 20.5 µM
COc1cccc(OCC2CC2)c1S(=O)(=O)Nc1noc2cccc(OC)c12 [Example 215, 2-(Cyclopropylmethoxy)-6-methoxy-N-(4-methoxybenzo[d]isoxazol-3-yl)benzenesulfonamide] |  | 4.47 µM | > 125 µM | 16.6 µM
COc1cccc(OC(C)C)c1S(=O)(=O)Nc1noc2cccc(OC)c12 [Example 217, 2-Isopropoxy-6-methoxy-N-(4-methoxybenzo[d]isoxazol-3-yl)benzenesulfonamide] |  | 10.2 µM | > 125 µM | 18.4 µM
COc1cccc(OCCO)c1S(=O)(=O)Nc1noc2cccc(OC)c12 [Example 220, 2-(2-Hydroxyethoxy)-6-methoxy-N-(4-methoxybenzo[d]isoxazol-3-yl)benzenesulfonamide] |  | 3.5 µM | > 125 µM | 11 µM
COc1cccc(OCc2ccccc2)c1S(=O)(=O)Nc1noc2cccc(OC)c12 [Example 222, 2-(Benzyloxy)-6-methoxy-N-(4-methoxybenzo[d]isoxazol-3-yl)benzenesulfonamide] |  | 0.655 µM | 26.8 µM | 1.42 µM
CCc1ccc(OC)c(S(=O)(=O)Nc2noc3ccc(Cn4cccn4)cc23)c1 [Example 225] |  | 3.62 µM | > 125 µM | 31.1 µM
CCc1ccc(OC)c(S(=O)(=O)Nc2noc3ccc(CN)cc23)c1 [Example 226] |  | 10.8 µM | 80.3 µM | 38 µM
CCc1ccc(OC)c(S(=O)(=O)Nc2noc3ccc(CNC(=O)OC)cc23)c1 [Example 227, Methyl ((3-((5-ethyl-2-methoxyphenyl)sulfonamido)benzo[d]isoxazol-5-yl)methyl) carbamate] |  | 41.5 µM | > 125 µM | 63.1 µM
CCc1ccc(OC)c(S(=O)(=O)Nc2noc3ccc(CNC(C)=O)cc23)c1 [Example 228, N-((3-((5-Ethyl-2-methoxyphenyl)sulfonamido)benzo[d]isoxazol-5-yl)methyl)acetamide] |  | 75.2 µM | 124 µM | > 125 µM
CCc1ccc(OC)c(S(=O)(=O)Nc2noc3ccc(CO)cc23)c1 [Example 229] |  | 85 µM | > 125 µM | 115 µM
CCc1ccc(OC)c(S(=O)(=O)Nc2noc3ccc(C(=O)NC)cc23)c1 [Example 230, 3-((5-Ethyl-2-methoxyphenyl)sulfonamido)-N-methylbenzo[d]isoxazole-5-carboxamide] |  | 48.1 µM | > 125 µM | 109 µM

SMILES | IC50 (MOF-KAT8) | IC50 (MOZ-KAT6A) | IC50 (TIP60-KAT5) | IC50 (HBO-KAT7)
CCc1ccc(OC)c(S(=O)(=O)Nc2noc3ccc(C(=O)N(C)C)cc23)c1 [Example 231, 3-((5-Ethyl-2-methoxyphenyl)sulfonamido)-N,N-dimethylbenzo[d]isoxazole-5-carboxamide] |  | 59 µM | > 125 µM | > 125 µM
CCc1ccc(OC)c(S(=O)(=O)Nc2noc3ccc(C(N)=O)cc23)c1 [Example 232, 3-((5-Ethyl-2-methoxyphenyl)sulfonamido)benzo[d]isoxazole-5-carboxamide] |  | 46.5 µM | > 125 µM | > 125 µM
CCc1ccc(OC)c(S(=O)(=O)Nc2noc3ccc(C#N)cc23)c1 [Example 233] |  | 9.95 µM | > 125 µM | 17.9 µM
CCc1ccc(OC)c(S(=O)(=O)Nc2noc3ccc(CC)cc23)c1 [Example 235] |  | 0.395 µM | 9.04 µM | 0.82 µM
CCc1ccc(OC)c(S(=O)(=O)Nc2noc3ccc(-c4cnn(C)c4)cc23)c1 [Example 237, 5-Ethyl-2-methoxy-N-(5-(1-methyl-1H-pyrazol-4-yl)benzo[d]isoxazol-3-yl)benzenesulfonamide] |  | 4.95 µM | > 125 µM | 18 µM
CCc1ccc(OC)c(S(=O)(=O)Nc2noc3ccc(-c4cncnc4)cc23)c1 [Example 238, 5-Ethyl-2-methoxy-N-(5-(pyrimidin-5-yl)benzo[d]isoxazol-3-yl)benzenesulfonamide] |  | 12 µM | > 125 µM | 94.2 µM
COc1cccc(OC)c1S(=O)(=O)Nc1noc2c(Br)cc(C)cc12 [Example 239] |  | 2.13 µM | 17.4 µM | 3 µM
COc1cccc(OC)c1S(=O)(=O)Nc1noc2cc(COCC(F)(F)F)cc(OC)c12 [Example 240, 2,6-Dimethoxy-N-(4-methoxy-6-((2,2,2-trifluoroethoxy)methyl)benzo[d]isoxazol-3-yl)benzenesulfonamide] |  | 1.83 µM | 122 µM | 10.2 µM
COc1cccc(OC)c1S(=O)(=O)Nc1noc2cc(-c3ccccn3)c(C)cc12 [Example 241, 2,6-Dimethoxy-N-(5-methyl-6-(pyridin-2-yl)benzo[d]isoxazol-3-yl)benzenesulfonamide] |  | 0.157 µM | 26.3 µM | 2.51 µM
COc1cccc(OC)c1S(=O)(=O)Nc1noc2cc(-c3cccc(C#N)c3)cc(OC)c12 [Example 243] |  | 0.654 µM | 18.1 µM | 0.72 µM
COc1cccc(OC)c1S(=O)(=O)Nc1noc2cc(C)cc(OC)c12 [Example 244, 2,6-Dimethoxy-N-(4-methoxy-6-methylbenzo[d]isoxazol-3-yl)benzenesulfonamide] |  | 2.13 µM | 30.2 µM | 1.11 µM
COc1cccc(OC)c1S(=O)(=O)Nc1noc2cc(-c3ccncc3)cc(OC)c12 [Example 245, 2,6-Dimethoxy-N-(4-methoxy-6-(pyridin-4-yl)benzo[d]isoxazol-3-yl)benzenesulfonamide] |  | 3.9 µM | 57.6 µM | 2.76 µM
COc1cccc(OC)c1S(=O)(=O)Nc1noc2cc(-c3cccnc3)cc(OC)c12 [Example 246, 2,6-Dimethoxy-N-(4-methoxy-6-(pyridin-3-yl)benzo[d]isoxazol-3-yl)benzenesulfonamide] |  | 0.676 µM | 27.1 µM | 0.478 µM
COc1ccc(-c2cc(OC)c3c(NS(=O)(=O)c4c(OC)cccc4OC)noc3c2)cn1 [Example 247, 2,6-Dimethoxy-N-(4-methoxy-6-(6-methoxypyridin-3-yl)benzo[d]isoxazol-3-yl)benzenesulfonamide] |  | 3.48 µM | 96.6 µM | 5.9 µM
COc1cc(C)cc(-c2cc(OC)c3c(NS(=O)(=O)c4c(OC)cccc4OC)noc3c2)c1 [Example 248, 2,6-Dimethoxy-N-(4-methoxy-6-(3-methoxy-5-methylphenyl)benzo[d]isoxazol-3-yl)benzenesulfonamide] |  | 0.139 µM | 9.33 µM | 0.375 µM
COc1cc(-c2cc(OC)c3c(NS(=O)(=O)c4c(OC)cccc4OC)noc3c2)ccn1 [Example 249, 2,6-Dimethoxy-N-(4-methoxy-6-(2-methoxypyridin-4-yl)benzo[d]isoxazol-3-yl)benzenesulfonamide] |  | 1.27 µM | 69.2 µM | 0.889 µM
COc1cc(C#N)cc(-c2cc(OC)c3c(NS(=O)(=O)c4c(OC)cccc4OC)noc3c2)c1 [Example 251] |  | 1.16 µM | 47 µM | 0.473 µM
